Measured values from article PMC4749168, “Potentiation of ΔF508- and G551D-CFTR-Mediated Cl^- Current by Novel Hydroxypyrazolines” (PLoS ONE, 2016).
“And” between values parts separate entries of the source, which are not always exact repeats. Identical values can stand only once. “Also recorded” adds a separate entry of the source.

How the values were obtained:
[1] = tested on: intracellular cAMP; test: Cyclic AMP assay in FRT cells; type: cell-based, rat; conditions: 10 μM CP7q
Protocol: FRT cells grown on 12 well culture plates were washed 3 times with PBS at 37°C and then incubated in PBS at 37°C containing 100 μM IBMX for […] in the absence or presence of forskolin or CP7q. After 10 min incubation, the cells were washed with cold PBS and cytosolic cAMP was measured using a cAMP immunoassay kit (Parameter TM cAMP immunoassay kit, R&D Systems) according to the manufacturer's protocol.

[2] = target: T1, CFTR (Homo sapiens, UniProt P13569); test: Short-circuit current in primary cultures of normal human nasal epithelial cells; type: cell-based; conditions: 0.5 μM forskolin, amiloride pretreatment
T1 construct: endogenous in cells; host or cells: primary cultures of normal human nasal epithelial cells (provided by Dr. Jaeyoung Choi), passage 2, air-liquid interface
Protocol: (§1) Snapwell inserts containing CFTR-expressing FRT and primary culture of human nasal epithelial cells were mounted in Ussing chambers (Physiologic Instruments, San Diego, CA). Forskolin, genistein, CP7q and CFTRinh-172 were added to the apical and basolateral bath solution. For FRT cells, the apical bath was filled with a half-Cl^- solution and the basolateral bath was filled with HCO3^—buffered solution, and the basolateral membrane was permeabilized with 250 μg/mL amphotericin B. For primary cultures of human nasal epithelial cells, symmetrical HCO3^—buffered solutions were used and ENaC was inhibited by pre-treatment with amiloride (100 μM). All cells were bathed for a 20 min stabilization period and aerated with 95% O2 / 5% CO2 at 37°C. Apical membrane current and short-circuit current were measured with an EVC4000 Multi-Channel V/I Clamp (World Precision Instruments, Sarasota, FL) and recorded using PowerLab 4/35 (AD Instruments, Castle Hill, Australia). Data were collected and analyzed with ADInstruments acquisition software Labchart Pro 7 software. The sampling rate was 4 Hz.

[3] = target: T2, ΔF508-CFTR (Homo sapiens, UniProt P13569, DEL508-508); test: YFP quenching assay of VX-809-mediated rescue in A549 cells expressing ΔF508-CFTR; type: cell-based; design: expressed in transfected cells; host or cells: Fisher rat thyroid (FRT) cells, co-expressing halide sensor YFP-H148Q/I152L; provided by Dr. Alan Verkman; conditions: 48 h, combined with 5 μM VX-809, 10 μM CP7q or 5 μM VX-770, vs VX-809 alone
Protocol: Fisher rat thyroid (FRT) cells expressing human wild type-, ΔF508- and G551D-CFTR with a halide sensor YFP-H148Q/I152L were generously provided by Dr. Alan Verkman (University of California, San Francisco) and grown in F-12 Modified Coon´s medium supplemented with 10% FBS, 2 mM glutamine, 100 units/ml penicillin and 100 μg/ml streptomycin [30]. A549 cells were obtained from Korean Cell Line Bank (Seoul, Korea) and the cells were stably transfected with human ΔF508-CFTR and the halide sensor YFP-H148Q/I152L/F46L, and maintained in RPMI-1640 medium containing 10% fetal bovine serum (FBS), 100 units/ml penicillin and 100 μg/ml streptomycin. […]
FRT cells expressing wild type- or ΔF508-CFTR with the halide sensor YFP-H148Q/I152L were plated in 96-well black-walled microplates (Corning Inc., Corning, NY) at a density of 2 x10^4cells per well. […] Assays were done using FLUO star Omega microplate reader (BMG Labtech, Ortenberg, Germany) and MARS Data Analysis Software (BMG Labtech). […] After 10 min, 96-well plates were transferred to the microplate reader preheated to 37°C for fluorescence assay. Each well was assayed individually for CFTR-mediated I^- influx by recording fluorescence continuously (200 ms per point) for 2 s (baseline), then 100 μL of 140 mM I^- solution was added at 2 s and then YFP fluorescence was recorded for 14 s. […]

[4] = target: T3, G551D-CFTR (Homo sapiens, UniProt P13569, G551D); test: Apical membrane current (Ussing chamber) in FRT cells expressing G551D-CFTR; type: cell-based
T3 construct: expressed in transfected cells; host or cells: Fisher rat thyroid (FRT) cells; provided by Dr. Alan Verkman
Protocol: as §1, with “Forskolin, genistein, CP7q and CFTRinh-172 were added to the apical and basolateral bath solution.” left out, “All cells were bathed for a 20 min stabilization period and aerated with 95% O2 / 5% CO2 at 37°C.” left out

[5] = target: T2, ΔF508-CFTR; test: Apical membrane current (Ussing chamber) in FRT cells expressing low temperature-rescued ΔF508-CFTR; type: cell-based; design: expressed in transfected cells; host or cells: Fisher rat thyroid (FRT) cells, co-expressing halide sensor YFP-H148Q/I152L; provided by Dr. Alan Verkman; conditions: 20 μM forskolin
Protocol: as §1

T3 sequence (P13569 whole entry G551D): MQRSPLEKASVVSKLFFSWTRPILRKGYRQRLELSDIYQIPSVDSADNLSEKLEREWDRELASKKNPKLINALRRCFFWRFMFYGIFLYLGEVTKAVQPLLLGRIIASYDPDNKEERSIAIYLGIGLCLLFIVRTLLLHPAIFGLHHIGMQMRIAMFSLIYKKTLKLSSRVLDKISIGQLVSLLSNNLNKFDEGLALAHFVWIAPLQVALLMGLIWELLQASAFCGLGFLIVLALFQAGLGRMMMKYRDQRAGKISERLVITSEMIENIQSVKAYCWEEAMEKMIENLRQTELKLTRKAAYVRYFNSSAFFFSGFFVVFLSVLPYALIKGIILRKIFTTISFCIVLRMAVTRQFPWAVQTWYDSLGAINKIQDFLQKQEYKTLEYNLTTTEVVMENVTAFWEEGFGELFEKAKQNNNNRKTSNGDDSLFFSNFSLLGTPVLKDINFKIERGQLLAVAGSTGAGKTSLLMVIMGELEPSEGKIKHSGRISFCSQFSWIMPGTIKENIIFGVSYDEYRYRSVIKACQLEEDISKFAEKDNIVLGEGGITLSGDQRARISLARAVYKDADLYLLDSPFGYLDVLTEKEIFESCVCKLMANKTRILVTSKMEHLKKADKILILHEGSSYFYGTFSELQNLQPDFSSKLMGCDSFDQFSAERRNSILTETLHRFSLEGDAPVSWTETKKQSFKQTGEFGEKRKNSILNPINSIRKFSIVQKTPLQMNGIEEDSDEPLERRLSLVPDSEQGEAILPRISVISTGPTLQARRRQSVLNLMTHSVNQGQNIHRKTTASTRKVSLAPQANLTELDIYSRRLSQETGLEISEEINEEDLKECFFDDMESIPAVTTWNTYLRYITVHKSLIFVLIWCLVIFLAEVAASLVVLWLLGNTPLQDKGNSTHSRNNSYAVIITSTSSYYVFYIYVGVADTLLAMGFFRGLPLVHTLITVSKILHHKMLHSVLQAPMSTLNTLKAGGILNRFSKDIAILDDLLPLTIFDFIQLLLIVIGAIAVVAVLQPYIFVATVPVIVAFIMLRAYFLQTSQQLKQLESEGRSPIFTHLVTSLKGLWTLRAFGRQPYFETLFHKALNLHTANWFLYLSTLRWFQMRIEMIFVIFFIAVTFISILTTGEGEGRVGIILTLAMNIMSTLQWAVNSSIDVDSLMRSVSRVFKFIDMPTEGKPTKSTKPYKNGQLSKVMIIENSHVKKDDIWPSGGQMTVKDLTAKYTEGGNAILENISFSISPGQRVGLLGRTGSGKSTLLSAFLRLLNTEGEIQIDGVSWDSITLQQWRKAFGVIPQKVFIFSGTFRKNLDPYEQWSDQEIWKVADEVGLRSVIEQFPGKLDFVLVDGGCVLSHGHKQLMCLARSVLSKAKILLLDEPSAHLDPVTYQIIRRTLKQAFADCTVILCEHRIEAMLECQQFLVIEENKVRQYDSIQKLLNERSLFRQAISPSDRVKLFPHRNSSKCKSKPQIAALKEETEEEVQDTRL
T2 sequence (P13569 with tags, fused parts or gaps DEL508-508): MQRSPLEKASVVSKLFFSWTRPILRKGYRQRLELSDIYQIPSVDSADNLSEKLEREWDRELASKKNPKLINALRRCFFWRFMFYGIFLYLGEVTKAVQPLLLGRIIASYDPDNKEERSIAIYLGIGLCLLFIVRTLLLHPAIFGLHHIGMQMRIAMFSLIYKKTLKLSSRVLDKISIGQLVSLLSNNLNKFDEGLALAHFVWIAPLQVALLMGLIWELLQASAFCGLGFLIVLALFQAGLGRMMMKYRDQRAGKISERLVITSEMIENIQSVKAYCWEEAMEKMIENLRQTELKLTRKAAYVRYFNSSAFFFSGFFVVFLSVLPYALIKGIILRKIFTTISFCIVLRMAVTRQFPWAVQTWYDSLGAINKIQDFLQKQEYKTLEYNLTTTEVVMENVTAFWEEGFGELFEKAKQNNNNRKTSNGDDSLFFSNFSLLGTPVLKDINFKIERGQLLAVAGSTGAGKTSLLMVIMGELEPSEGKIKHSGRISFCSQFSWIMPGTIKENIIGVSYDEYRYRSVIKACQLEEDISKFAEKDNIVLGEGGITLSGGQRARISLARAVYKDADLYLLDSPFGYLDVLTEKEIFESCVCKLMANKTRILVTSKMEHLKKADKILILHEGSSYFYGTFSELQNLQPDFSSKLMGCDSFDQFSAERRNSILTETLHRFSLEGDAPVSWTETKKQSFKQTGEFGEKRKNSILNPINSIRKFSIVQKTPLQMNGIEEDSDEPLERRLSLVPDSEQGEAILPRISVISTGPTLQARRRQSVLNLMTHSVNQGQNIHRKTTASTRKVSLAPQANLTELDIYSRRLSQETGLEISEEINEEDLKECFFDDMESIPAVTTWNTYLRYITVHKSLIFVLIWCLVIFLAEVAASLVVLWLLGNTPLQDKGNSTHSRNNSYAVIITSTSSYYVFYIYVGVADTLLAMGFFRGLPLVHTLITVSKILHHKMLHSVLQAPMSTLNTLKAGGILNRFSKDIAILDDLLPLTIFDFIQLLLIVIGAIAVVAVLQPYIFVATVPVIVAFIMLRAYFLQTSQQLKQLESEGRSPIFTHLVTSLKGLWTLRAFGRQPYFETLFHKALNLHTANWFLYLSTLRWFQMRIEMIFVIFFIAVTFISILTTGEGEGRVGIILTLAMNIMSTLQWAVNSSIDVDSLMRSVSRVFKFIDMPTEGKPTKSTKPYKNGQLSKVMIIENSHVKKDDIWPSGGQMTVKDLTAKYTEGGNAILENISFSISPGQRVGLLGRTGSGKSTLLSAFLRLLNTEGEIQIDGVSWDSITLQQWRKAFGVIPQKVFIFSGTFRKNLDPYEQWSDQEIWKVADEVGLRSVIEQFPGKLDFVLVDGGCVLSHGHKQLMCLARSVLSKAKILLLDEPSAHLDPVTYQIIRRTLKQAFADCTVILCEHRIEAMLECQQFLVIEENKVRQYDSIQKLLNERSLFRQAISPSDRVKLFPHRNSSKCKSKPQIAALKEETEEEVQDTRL
T1 sequence (P13569 whole entry): as the sequence (P13569 whole entry G551D) above, with D551G counted along it

COc1ccc(C2CC(c3ccc(O)cc3O)=NN2c2ccc(S(N)(=O)=O)cc2)c(OC)c1 (stereo not drawn) [Compound 7q, 4-[3-(2,4-dihydroxyphenyl)-5-(2,4-dimethoxyphenyl)-4,5-dihydro-1H-pyrazol-1-yl] benzenesulfonamide]
Effect on intracellular cAMP level [1]: did not alter; also recorded: did not affect
Potentiation of CFTR Cl- current (short-circuit current) [2]: remarkably potentiated
Effect on functional rescue of ΔF508-CFTR by VX-809 (iodide influx) [3]: significantly increased
Potentiation of G551D-CFTR Cl- current compared with VX-770 ([4]; 20 μM forskolin, 30 μM CP7q vs 10 μM VX-770): comparable to VX-770
Potentiation of G551D-CFTR Cl- current relative to genistein ([4]; 20 μM forskolin, 30 μM CP7q vs 50 μM genistein): 1.9 times
Potentiation of G551D-CFTR Cl- current ([4]; 20 μM forskolin, 50 μM genistein, 10 μM VX-770, CP7q): significantly potentiated
Maximal potentiation of G551D-CFTR chloride conductance relative to genistein ([4]; higher than genistein): 1.9 fold
Efficacy of ΔF508-CFTR potentiation compared with genistein ([5]; genistein 50 μM): slightly higher than that of genistein
EC50 ([5]; FRT cells, 27°C rescue 24 h): 4.45 µM and ~4.45 µM
